Legend:
RAR = RAR transcriptional activation assay (RARE-luc MCF-7 cells); assay type: cell-based; settings: 0.1 nM to 10 µM, 24 hours of treatment
Source text: This retinoid transcriptional activity assay measures the ability of a test compound to induce expression of a RA-sensitive reporter construct. This assay utilizes MCF-7 cells stably transduced with a gene construct comprising 4 tandem RA-response elements linked to a promoter driving transcriptional expression of the firefly luciferase encoding mRNA (RARE-luc). This construct serves as a sensitive reporter of retinoid-like activity.
RARE-luc transduced MCF-7 cells were maintained in a RPMI-1640 medium containing 10% FBS. Cells were grown in 96-well plates, and treated with the test compound diluted in DMSO in duplicate at 0.1 nM, 1 nM, 10 nM, 100 nM, 1 µM and 10 µM final concentrations. As a positive control for reporter activation, cells were also treated with RA diluted in DMSO at the same concentrations. DMSO treatment alone served as a negative control. After 24 hours of treatment, cells were harvested lysis buffer (Molecular Devices, San Jose, USA) and luciferase activity in cell lysates were read using a luminometer.

heterotopic ossification = assay: Surgical mouse model of heterotopic ossification (rhBMP2 collagen disk implant); assay type: in vivo
Method: Disks were impregnated with 1µg total of recombinant human BMP-2 (GenScript, Piscataway, NJ, USA, catalog #Z02913, lot #P50031712) on the day of surgery (5µl of 200ng/µL BMP-2, reconstituted in 20mM acetic acid solution). The rhBMP2-soaked collagen disk was surgically implanted into a small pocket made in the left gastrocnemius muscle of a 6-8 week-old male CD-1 mouse.
At the study endpoint (Day 14: 16-30 hours after final compound treatment) left hindlimbs were removed and submitted to micro-CT (micro-computed tomography) imaging.
CT images were acquired using a VECTor^4CT pre-clinical scanner (MILabs B.V., Utrecht, Netherlands) equipped with a cone beam X-ray CT system. Scans were carried out with an acceleration voltage of 50 kVp and an X-ray tube current of 430 µA in accurate focus mode to obtain 3600 projections over a 360° scan. […] CT images were consequently processed using MILabs reconstruction software implementing a voxel size of 20 µm and a Hann projection filter of 25 µm to generate 3-dimensional CT images. For quantification, CT images were converted to DICOM® files using PMOD 3.9 software (PMOD Technologies Ltd., Zurich, Switzerland) for rendering using RadiAnt DICOM Viewer 4.2 software (Medixant, Poznań, Poland). The region-of-interest for all hindlimbs, reconstructed from DICOM files, was defined by outlining sites of ectopic ossification. Analysis of total ectopic bone volume was conducted via automated processes using the AnalyzePro software with the Bone Microarchitecture Analysis (BMA) add-on (AnalyzeDirect, Overland Park, Kansas).

growth plates = assay: Long bone growth and growth plate toxicity in juvenile FVB mice; settings: mouse, in vivo
Source text: For both palovarotene and compound 1 efficacy and toxicity were correlated to the pharmacokinetic parameters AUC (area under the curve), Cmax (maximum concentration detected following compound administration), and duration above EC50/IC50.This illustrated that efficacy was best predicted by duration above the EC50/IC50 (effective concentration for 50% response (in the case of palovarotene), or for 50% inhibition (in the case of compound 1)), whereas toxicity was best predicted by Cmax. […] For palovarotene, efficacy data from Example 7 and toxicity data from Example 8 above were compiled with mined data from the following publications: • Lindborg et al (2018). "Cartilage-derived retinoic acid-sensitive protein (CD-RAP): A stage-specific biomarker of heterotopic endochondral ossification (HEO) in fibrodysplasia ossificans progressiva (FOP)." Bone 109: 153-157. • Chakkalakal, S. A., et al. (2016). "Palovarotene Inhibits Heterotopic Ossification and Maintains Limb Mobility and Growth in Mice With the Human ACVR1(R206H) Fibrodysplasia Ossificans Progressiva (FOP) Mutation." J Bone Miner Res 31(9): 1666-1675. • Inubushi, T., et al. (2018). "Palovarotene Inhibits Osteochondroma Formation in a Mouse Model of Multiple Hereditary Exostoses." J Bone Miner Res 33(4): 658-666. • Lees-Shepard, J. B., et al. (2018). […]

ectopic bone formation = assay: Genetic model of FOP (pinch injury, Acvr1 cR206H/+;Pdgfra-Cre+ mice); assay type: in vivo, mouse; settings: for Mean ectopic bone volume D14 / percent change from vehicle (D14): day 14; for Mean ectopic bone volume D22 / percent change from vehicle (D22): day 22
Source text: Acvr1^(cR206H/+) mice were obtained from the International Fibrodysplasia Ossificans Progressiva Association (IFOPA, North Kansas City, MO, USA). These animals harbour a Cre recombinase-inducible Acvr1 transgenic allele, which causes a switch from wild-type mouse ACVR1 protein expression to that of a chimeric mouse/human protein containing the R206H mutation seen in >95% of FOP patients. These animals were intercrossed with Pdgfra-Cre expressing mice (C57BL/6-Tg(PDGFRA-cre)1Clc/J mice, available through The Jackson Laboratory, Bar Harbor, ME, USA) which activates Cre recombination in fibro-adipogenic precursors, currently believed to be the cells of origin for FOP (Lees-Shepard, J.B., et al (2018) Nat Commun 9, 471.). Resulting study animals (ACVR1^(R206H/+);Pdgfra-Cre+) are susceptible to injury-induced ectopic bone formation. These animals were subjected to a bilateral gastrocnemius pinch procedure under anaesthesia, whereby a Halsted-mosquito hemostat (product#13008-12, Fine Science Tools Inc., North Vancouver, BC, Canada) is used to compress the gastrocnemius muscle, at its widest part, to approximately 2mm for 5s, and then released. This injury elicits robust ectopic bone formation within 10-14 days (for description of procedure see, Lyu, H., et al. (2021). Biomedicines 9(6).). Animals began treatment with various doses of compound 1 (0.5 mg/kg BID, 1 mg/kg BID, 2 mg/kg BID, 4 mg/kg BID, 7.5 mg/kg BID and 10 mg/kg BID or 2 mg/kg QD and 10 mg/kg QD) or palovarotene (1.76 mg/kg QD or 0.88 mg/kg QD) or corn oil vehicle on the day following the procedure for 21 days. Micro-CT imaging was performed on day 14 (under anaesthesia) and at study termination (day 22), as outlined above in Example 7. Sites of ectopic bone formation in the area of the injury were volumetrically quantified using Class stratification in Imalytics Preclinical software (version 3.0.2.3, Gremse-IT GmbH, Aachen, Germany) from DICOM renderings. Using this model, the utility of compound 1 in inhibiting bone formation in a genetic mouse model of FOP was illustrated (see Figure 11 and Table 3 below). […]

Question: `CC(C)(C)c1cccc(-c2cc3cc(/C=C/C(=O)O)ccc3[nH]2)c1` [compound 1, (E)-3-(2-(3-(tert-butyl)phenyl)-1H-indol-5-yl)acrylic acid] was tested. Which luciferase activity (RAR) did it give?
Answer: did not induce luciferase activity significantly

Question: What about the ectopic bone formation (heterotopic ossification; result in words, 2 to 18 mg/kg QD or BID, 14 days, micro-CT) of the same compound?
Answer: dose-dependent decrease in ectopic bone formation from vehicle

Question: What about the “disturbances to the growth of long bones and microarchitecture of the growth plates” value (growth plates) of the same compound?
Answer: not observed

Question: And the “Mean ectopic bone volume D14” value (ectopic bone formation; 0.5mg/kg BID)?
Answer: 5.31 ± 6.65 mm^3

Question: What about the “percent change from vehicle (D14)” value (ectopic bone formation; 0.5mg/kg BID) of the same compound?
Answer: -51.9%

Question: And the “Mean ectopic bone volume D22” value (ectopic bone formation; 0.5mg/kg BID)?
Answer: 4.01 ± 7.71 mm^3

Question: What about the “percent change from vehicle (D22)” value (ectopic bone formation; 0.5mg/kg BID) of the same compound?
Answer: -63.4%

Question: What about the “Mean ectopic bone volume D14” value (ectopic bone formation; 1mg/kg BID) of the same compound?
Answer: 4.88 ± 6.79 mm^3

Question: What about the “percent change from vehicle (D14)” value (ectopic bone formation; 1mg/kg BID) of the same compound?
Answer: -55.8%

Question: And the “Mean ectopic bone volume D22” value (ectopic bone formation; 1mg/kg BID)?
Answer: 5.50 ± 10.67 mm^3

Question: And the “percent change from vehicle (D22)” value (ectopic bone formation; 1mg/kg BID)?
Answer: -49.8%

Question: What about the “Mean ectopic bone volume D14” value (ectopic bone formation; 2mg/kg BID) of the same compound?
Answer: 4.62 ± 5.80 mm^3

Question: What about the “percent change from vehicle (D14)” value (ectopic bone formation; 2mg/kg BID) of the same compound?
Answer: -58.1%

Question: And the “Mean ectopic bone volume D22” value (ectopic bone formation; 2mg/kg BID)?
Answer: 5.08 ± 7.90 mm^3

Question: What about the “percent change from vehicle (D22)” value (ectopic bone formation; 2mg/kg BID) of the same compound?
Answer: -53.6%

Question: And the “Mean ectopic bone volume D14” value (ectopic bone formation; 2mg/kg QD)?
Answer: 3.61 ± 4.98 mm^3

Question: And the “percent change from vehicle (D14)” value (ectopic bone formation; 2mg/kg QD)?
Answer: -67.3%

Question: And the “Mean ectopic bone volume D22” value (ectopic bone formation; 2mg/kg QD)?
Answer: 1.77 ± 1.73 mm^3

Question: And the “percent change from vehicle (D22)” value (ectopic bone formation; 2mg/kg QD)?
Answer: -83.8%

Question: What about the “Mean ectopic bone volume D14” value (ectopic bone formation; 4mg/kg BID) of the same compound?
Answer: 1.54 ± 2.85 mm^3

Question: What about the “percent change from vehicle (D14)” value (ectopic bone formation; 4mg/kg BID) of the same compound?
Answer: -86.1%

Question: What about the “Mean ectopic bone volume D22” value (ectopic bone formation; 4mg/kg BID) of the same compound?
Answer: 2.65 ± 6.33 mm^3

Question: What about the “percent change from vehicle (D22)” value (ectopic bone formation; 4mg/kg BID) of the same compound?
Answer: -75.8%

Question: What about the “Mean ectopic bone volume D14” value (ectopic bone formation; 7.5mg/kg BID) of the same compound?
Answer: 0.26 ± 0.42 mm^3

Question: And the “percent change from vehicle (D14)” value (ectopic bone formation; 7.5mg/kg BID)?
Answer: -97.6%

Question: And the “Mean ectopic bone volume D22” value (ectopic bone formation; 7.5mg/kg BID)?
Answer: 0.06 ± 0.16 mm^3

Question: And the “percent change from vehicle (D14)” value (ectopic bone formation; 10mg/kg BID)?
Answer: -88.4%

Question: What about the “percent change from vehicle (D22)” value (ectopic bone formation; 10mg/kg BID) of the same compound?
Answer: -87.2%

Question: What about the “Mean ectopic bone volume D14” value (ectopic bone formation; 10mg/kg QD) of the same compound?
Answer: 1.56 ± 3.61 mm^3

Question: And the “percent change from vehicle (D14)” value (ectopic bone formation; 10mg/kg QD)?
Answer: -85.9%

Question: And the “Mean ectopic bone volume D22” value (ectopic bone formation; 10mg/kg QD)?
Answer: 2.13 ± 6.10 mm^3

Question: What about the “percent change from vehicle (D22)” value (ectopic bone formation; 10mg/kg QD) of the same compound?
Answer: -80.6%

Question: And the “efficacy in inhibiting bone formation” value (ectopic bone formation; result in words, comparison with palovarotene)?
Answer: at least as efficacious as clinically relevant doses of palovarotene

Question: Which “percent change in HO volume from vehicle mean” value (heterotopic ossification; 0.88mg/kg, 13 days, Day 14) does the source give for `CC1(C)CCC(C)(C)c2cc(Cn3cccn3)c(/C=C/c3ccc(C(=O)O)cc3)cc21` [palovarotene, reference compound] here?
Answer: +2.5%

Question: What about the “Mean ectopic bone volume D14” value (ectopic bone formation; 0.88mg/kg QD) of the same compound?
Answer: 2.42 ± 3.93 mm^3

Question: And the “percent change from vehicle (D14)” value (ectopic bone formation; 0.88mg/kg QD)?
Answer: -78.0%

Question: And the “Mean ectopic bone volume D22” value (ectopic bone formation; 0.88mg/kg QD)?
Answer: 0.75 ± 0.97 mm^3

Question: What about the “percent change from vehicle (D22)” value (ectopic bone formation; 0.88mg/kg QD) of the same compound?
Answer: -93.2%

Question: What about the “Mean ectopic bone volume D14” value (ectopic bone formation; 1.76mg/kg QD) of the same compound?
Answer: 1.54 ± 2.48 mm^3

Question: And the “percent change from vehicle (D14)” value (ectopic bone formation; 1.76mg/kg QD)?
Answer: -86.1%

Question: What about the “Mean ectopic bone volume D22” value (ectopic bone formation; 1.76mg/kg QD) of the same compound?
Answer: 0.58 ± 0.96 mm^3

Question: And the “percent change from vehicle (D22)” value (ectopic bone formation; 1.76mg/kg QD)?
Answer: -94.7%
